Data as given in patent US20230160890A1, “COMPOSITIONS AND METHODS FOR DIAGNOSING NARCOLEPSY” (The Board of Trustees of the Leland Stanford Junior …, priority 2018, published 2023).
Entries after “also recorded” stand apart in the source; their conditions may differ. Ends that are not written are not given here. * marks the point of attachment. Biotin = O=C1N[C@H]2[C@H](CS[C@H]2CCCCC(=O)*)N1

Columns and labels:
[1] = system: CD4+ T cells from T1N donors; assay: In vitro culturing of CD4+ T cells with peptide-loaded T2DQ6 APCs, then tetramer staining; type: cell-based, human; conditions: for Frequencies of tetramer+ cells after in vitro stimulation with the corresponding peptide: stained with the tetramer of the corresponding peptide
From the text: To test for the presence of DQ6-HCRTpeptide tetramer^+/CD4^+ T cells, a peptide-loaded antigen presenting cell (APC) line T2DQ6 (fixed to limit APC proliferation) was co-cultured with T cells for DQ6-restricted antigen stimulation. T2DQ6 was constructed by stable transfection of DQ6 (DQA1*01:02/DQB1*06:02) into T2, a class II deficient TxB hybrid cell^44. T2DQ6 cells were maintained in IMDM, GlutaMAX supplemented media (Thermo Fisher Scientific) with 10% HI FBS, 1% penicillin/streptomycin (P/S) and 1 mg/ml G418 (to maintain selective pressure on DQ6 transfectants). To load antigen, T2DQ6 cells were pulsed with peptides (i.e., EBV486-500, HCRT56-69, HCRT87-100, synthesized by Genscript) at 1 μM final concentration and incubated for 6 hours at 37° C. After peptide loading, 10 million T2DQ6 cells were washed with phosphate buffered saline (PBS) and then fixed by incubating with 0.025% glutaraldehyde in 2 ml PBS at RT for 30 seconds. After the addition of another 2 ml PBS, the cells were incubated for another 10 minutes at RT. Fixed T2DQ6 was washed twice with PBS and once with complete RPMI (RPMI 1640 medium supplemented with 10% HI human AB serum, 2 mM glutamine and 1% PS) before mixing with CD4^+ T cells. Human PBMCs frozen in NUNC tubes were thawed quickly at 37° C. and added slowly to 10 ml warm complete RPMI. PBMCs were pelleted and resuspended in cold buffer for CD4^+ T cell isolation. Cells were isolated from the PBMCs by negative selection, using the CD4^+ cell isolation kit, according to the manufacturer's instructions (Miltenyi Biotec). Isolated CD4^+ T cells were resuspended at 1×10^6 cells/ml in warm complete RPMI and rested for at least 1 hour before mixing with fixed T2DQ6 cells that were also resuspended at 1×10^6 cells/ml in warm complete RPMI. A mixture of 1:1 volume ratio of CD4^+ T cells and T2DQ6 cells in the presence of recombinant human IL-7 at final concentration of 2.5 ng/ml was aliquoted onto a 96-well plate and incubated at 37° C. for 6 days. On day 6 and day 9, 100 μl of the spent medium was removed from each well and replaced with fresh complete RPMI containing recombinant IL-7 at 2.5 ng/ml and IL-2 at 40 U/ml final concentrations. On day 12, a second round of antigen stimulation was performed similarly, using fixed T2DQ6 cells loaded with the corresponding peptides.
Sufficient cells from the co-culture were collected, washed with complete RPMI, and resuspended in 5 ml complete RPMI at RT prior to Ficoll gradient separation. Cells above the Ficoll media were washed and resuspended at 10×10^6 cells/ml in complete RPMI for blocking. […]

[2] = target: T1, soluble DQ6 (DQA1*01:02/DQB1*06:02) (Homo sapiens, UniProt P01909+P01920, A157G/A45G/C70R/E118A/E183D/E77G/F83G/G63E/H151Q/H199R/H252R/H253Q/I129T/I235V/I88M/INS77G/K197Q/L117V/L119F/L178F/L71W/L74F/L85Q/L91A/L98M/N214S/P87R/Q116E/Q76K/R102G/R240Q/R75S/R78G/S102Y/S185I/S41F/S97I/T121G/T122I/T172A/T86R/V229M/V68A/V73E/Y34C/Y41F/Y58L); assay: Peptide competition assay (inhibition of DQ6 binding of biotinylated EBV486-500)
T1 construct: 3C protease cleavage site (C); leucine zipper-Fos (C); cut by thrombin before the assay (N, cleaved yes); leucine zipper-Jun (C); made in house; host or cells: Drosophila Schneider 2 (S2) insect cells
From the text: The ability of a peptide to inhibit the interaction of DQ6 and a reference binding peptide at steady state was used to estimate the relative DQ6 binding capacity of test peptides. We used biotinylated EBV486-500 (aa: biotin-[…] (SEQ ID NO:45), synthesized by Genscript), a DQ6-binding peptide (epitope underlined) derived from Epstein-Barr virus nuclear antigen^25, as our reference peptide. Non-biotinylated test peptides included thirty 15-mer overlapping peptides derived from prepo-HCRT (Table 1, by Genscript) and the positive control peptide EBV486-500. The DQ6-CLIP87-101 construct contains a thrombin cleavage site in between CLIP87-101 and […]. To cleave the covalent linker and enable replacement of CLIP87-101 by high affinity DQ6 binders, soluble DQ6-CLIP87-101 at a concentration of 3 μM was incubated with 0.002 U/μl thrombin enzyme (Novagen, EMD Millipore) for 2 h at room temperature (RT) prior to peptide loading experiments. To test DQ6 binding capacity, a non-biotinylated peptide at 40 μM was mixed with 1 μM biotinylated EBV486-500 and incubated with 25 nM thrombin-cleaved DQ6-CLIP87-101. 100 nM soluble DM was added as a catalyst to increase the peptide exchange efficiency^44. […] Time resolved fluorescence representing DQ6-associated biotinylated EBV486-500 captured by SPV-L3 in each well was then quantified using the DELFIA Eu-N1 Streptavidin System (PerkinElmer).

[3] = system: TCR27 transfectants of J76-NFATRE-luc cells; assay: T cell activation assay using a luciferase reporter, TCR27 transfectants with K562-DQ6 APCs; type: cell-based, human; set-up: dose or concentration left out as unconfirmed; conditions: DQ6-restricted presentation by K562-DQ6, 1 day
From the text: To encode the entire α/β chains of a candidate TCR, the nucleotide sequences for CDR3a and CDR3P were incorporated in frame with the corresponding V(D)J genes (IMGT/V-QUEST^37). TCRα/β genes were then synthesized and cloned into a plasmid pEF1α-TCRA_2A_TCRB_IRES-AcGFP1 (by GenScript). Each reconstructed plasmid uses a mammalian promoter, EF1a to direct co-expression of α and β chains of one candidate TCR. TCRA and TCRB are separated by the 2A self-cleaving peptide sequence. For selection purposes, the plasmid also encodes the green fluorescence protein (GFP) and neomycin resistance gene, with expression driven by separate promoters. TCR-encoding plasmids were then transfected into the TCRα/β deficient Jurkat cell line (J76-NFATRE-luc)^20 by nucleofection following the Amaxa Optimized protocol (Lonza). Transfectants were selected by G418 at a concentration of 1 mg/ml and recovered after 3-4 weeks of culturing in the RPMI medium supplemented with 10% HI FBS, 2 mM glutamine, and 1% PS. To avoid the heterogeneity in TCR expression observed in a polyclonal cell line, TCRαβ^+/GFP^+/CD3^+ cell transfectants were individually sorted by single cell FACS, to expand clonal cell lines originating from single cell transfectants. These clonal lines were then co-stained with PE anti-TCRα/β Abs (BD Biosciences) and APC DQ6-HCRT tetramers to confirm the expression of TCRs and validate their binding to tetramers using flow cytometric analysis.
The TCR transfectants of J76-NFATRE-luc cells expresses the NFAT-RE (response element)-luciferase reporter gene allowing the conversion of T cell activation signaling to luciferase activity^20. […] The co-culture was incubated with various stimuli at 37° C. for 1 day before quantification of the luciferase activity. […] The mixture was then transferred to a flat-bottom white 96-well plate (Costar) for a measurement of chemiluminescence using a plate reader.

[4] = target: soluble HLA-DQ6 (DQA1*01:02/DQB1*06:02), thrombin-cleaved DQ6-CLIP87-101 (human); assay: competition: 40 µM test peptide against 1 µM biotinylated EBV486-500 on 25 nM soluble DQ6 with 100 nM HLA-DM, SPV-L3 capture, DELFIA
[5] = target: T2, prepro-HCRT (hypocretin precursor) peptide on HLA-DQA1*01:02 / HLA-DQB1*06:02 (human); assay: activation reporter or marker
T2 peptide: ALLSSGAAAQPLP

[6] = target: T3, prepro-HCRT (hypocretin precursor; C-terminus of HCRT2) peptide on HLA-DQA1*01:02 / HLA-DQB1*06:02 (human); assay: multimer staining
T3 peptide: SGNHAAGILTMGRR

[7] = target: T4, prepro-HCRT (hypocretin precursor) peptide on HLA-DQA1*01:02 / HLA-DQB1*06:02 (human); assay: multimer staining
T4 peptide: MNLPSTKVSWAAV

For AGNHAAGILTLGKR [HCRT56-69], the “Frequencies of tetramer+ cells after in vitro stimulation with the corresponding peptide” value (from here on “Frequencies of tetramer+ cells”) [1] was “significantly increased”.

For ALLSSGAAAQPLPDC [HCRT25-39], the DQ6 binder class ([2]; competition assay, FIG. 2A) was “strong binder”.

With “EBV486-500: a DQ6-binding peptide derived from Epstein-Barr virus nuclear antigen, reference and positive control peptide (Biotin-GGGRALLARSHVERTTDE) [reference compound]” the “Frequencies of tetramer+ cells” value [1] was “time dependent enrichment”.

In the case of MNLPSTKVSWAAV [HCRT1-13], the “TCR-mediated signaling (luciferase activity)” value (shortened to “TCR-mediated signaling”) [3] is reported as “failure of TCR27-mediated signaling”.

For MNLPSTKVSWAAVTL [HCRT1-15], the “% Competition (inhibition of the indicator EBV peptide binding to DQ6)” value ([2]; test peptide 40 μM, 1 μM biotinylated EBV486-500, 25 nM DQ6, 100 nM DM, pH 4.6, 37° C., 20 hours) was greater than 75%.

SGNHAAGILTM-NH2 [HCRT87-97-NH2] was tested, and the “TCR-mediated signaling” value [3] was “significant signaling response; also recorded: triggered stronger signaling”.

In the case of SGNHAAGILTMGRR [HCRT87-100], the “TCR-mediated signaling” value [3] is reported as “able to trigger TCR-mediated activation signaling”, the “Enrichment of DQ6-HCRT56-69 tetramer+ cells in peptide-stimulated culture” value ([1]; stained with the DQ6-HCRT56-69 tetramer, some T1N donors) is reported as “enrichment” and the “Frequencies of tetramer+ cells” value [1] is reported as “significantly increased”.

B1: Hcrt1-15 peptide (…) (peptide)
peptide: MNLPSTKVSWAAVTL
B1 gave a % competition [4] greater than 75%.

B2: T1N-irrelevant TCR isolated from a CD8+ T cell (TCR)
alpha TRAV25 TRAJ42 CDR3: CAGTYGGSQGNLIF
beta TRBV19 TRBJ2-2 CDR3: CASSLRSTGELFF
B2: no recognition [5]; no recognition [6]; no recognition [7].

B3: TCR26 (TCR)
alpha TRAV9-2 TRAJ5 CDR3: CALSGKDTGRRALTF
beta TRBV25-1 TRBJ2-1 CDR3: CASSASPNEQFF
B3: no recognition [5].
